From article PMC10661773, “Cytotoxic pathways activated by multifunctional thiosemicarbazones targeting sigma-2 receptors in breast and lung carcinoma cells” (Pharmacological Reports, 2023)

How the values were obtained:
caspase 9 in A549 cells = assay: Caspase 9 activity, fluorimetric; format: cell-based, human; conditions: A549, 2 h, 50 µM
Method: (§1) Activation of caspase 3, caspase 7 and caspase 9 was measured using the Caspase 3/7 Fluorescence Assay kit (Cayman Chemical, Ann Arbor, MI; #10,009,135) and the Caspase 9 fluorimetric assay kit (Enzo Life Science, Roma, Italy; #ALX-850-224). The results were expressed as nmoles of the hydrolyzed substrate of each caspase/mg cellular proteins, according to a previously set titration curve.

caspase 9 in MCF7 cells = assay: Caspase 9 activity, fluorimetric; format: cell-based, human; conditions: MCF7, 2 h, 50 µM
Method: as §1

MCF7 and A549 cells = assay: Whole cell ROS, DCFDA-AM probe; format: cell-based, human; conditions: MCF7 and A549, 2 h, 50 µM
Method: Intramitochondrial reactive oxygen species (ROS) were measured using the MitoSOX fluorescent probe (Invitrogen ThermoScientific, # M36008), according to the manufacturer’s instructions. For total ROS, cells were incubated with 5 µmol/L of 5-(and-6)-chlorometyl-20,70-dichlorodihydro-fluorescein diacetate-acetoxymethyl ester (DCFDA-AM, Sigma, #21,884), as described by Riganti et al. 2015 [21]. The results are expressed as nmoles/mg mitochondrial or cellular proteins, respectively.

MCF7 and A549 cell lines = assay: Cytotoxic activity across the two tumor cell lines (MTT); format: cell-based; conditions: Homo sapiens; MCF7 and A549, MTT 48 h; read-out: EC50 range in the two tumor cell lines
Method: (§2) Human MCF7 breast adenocarcinoma (#HTB-22) and human A549 carcinoma (#CCL-85) cell lines, non-tumor human breast (MCF10A, #CRL-10317) and lung (BEAS-2B, #CRL-9482) cells were obtained from American Type Culture Collection (ATCC, Bethesda, MD). MCF7 cells were cultured in DMEM medium (Gibco Thermo Scientific, Waltham, MA; #10,565,018), A549 in HAM’s F12 medium (Gibco Thermo Scientific; #11,765,054), and BEAS-2B in RPMI-1640 medium (Gibco Thermo Scientific; # 61,870,010), all supplemented with 10% v/v fetal bovine serum (FBS; Sigma, St. Louis, MO; #F4135) and 1% v/v penicillin–streptomycin (Sigma; #P4458). MCF10A cells were cultured in DMEM/F12 medium (Gibco Thermo Scientific; #31,331,028) supplemented with 5% v/v horse serum (Sigma; #H1270) and 1% v/v penicillin–streptomycin, 20 ng/mL epidermal growth factor (Sigma, #E4127), 10 µg/mL insulin (Sigma, #I3536), […] hydrocortisone (Sigma, #H0888), 100 ng/mL cholera toxin (Sigma, #C8052). Cells were kept in a humidified incubator at 37 °C with 5% CO2.
Cell growth was determined using the MTT assay at 48 h. On day 1, 25,000 cells/well were seeded into 96-well plates in a volume of 100 μL. […] Formazan crystals were solubilized using 100 μl of DMSO/EtOH (1:1) and absorbance values at 570 and 630 nm were determined on the microplate reader Victor 3 from PerkinElmer Life Sciences (Waltham, MA).

MCF7 = assay: Cell viability, MTT assay at 48 h; format: cell-based; conditions: Homo sapiens, MCF7; MTT, 48 h; read-out: EC50 ± SEM, tumor cells MCF7
Method: as §2
(§3) Cell growth was determined using the MTT assay at 48 h. On day 1, 25,000 cells/well were seeded into 96-well plates in a volume of 100 μL. On day 2, the various drug concentrations (1 μM–100 μM) were added. In all experiments, the various drug solvents (EtOH, Sigma, # E7148; DMSO, Sigma, # D8418) were added to each control to evaluate possible cytotoxicity of the solvent. After the established incubation time with drugs (48 h), MTT (0.5 mg/mL, Sigma # M2003) was added to each well, and after 3–4 h incubation at 37 °C, the supernatant was removed. Formazan crystals were solubilized using 100 μl of DMSO/EtOH (1:1) and absorbance values at 570 and 630 nm were determined on the microplate reader Victor 3 from PerkinElmer Life Sciences (Waltham, MA).

A549 = assay: Cell viability, MTT assay at 48 h; format: cell-based; conditions: Homo sapiens, A549; MTT, 48 h; read-out: EC50 ± SEM, tumor cells A549
Method: as §2, §3

MCF10A = assay: Cell viability, MTT assay at 48 h; format: cell-based; conditions: Homo sapiens, MCF-10A, read-out: EC50 ± SEM, normal cells MCF10A
Method: as §2, §3

BEAS-2B = assay: Cell viability, MTT assay at 48 h; format: cell-based; conditions: Homo sapiens, read-out: EC50 ± SEM, normal cells BEAS-2B
Method: as §2, §3

sigma-2 receptors = sigma-2 receptors (Homo sapiens, UniProt Q5BJF2); conditions: read-out: Sigma-2 Affinity Ki; cited from earlier work
sigma-2 receptors, sequence (Q5BJF2 whole entry): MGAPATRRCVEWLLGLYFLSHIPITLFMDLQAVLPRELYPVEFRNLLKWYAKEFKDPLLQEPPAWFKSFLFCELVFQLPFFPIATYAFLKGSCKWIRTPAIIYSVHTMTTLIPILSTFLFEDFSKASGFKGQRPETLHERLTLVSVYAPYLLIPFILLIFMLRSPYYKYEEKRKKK

Compound: CN(C)C(=S)N/N=C1\C(=O)N(CCCCN2CCC3(CC2)OCc2ccccc23)c2ccccc21 [FA4, (Z)-2-(1-(4-(3H-spiro[isobenzofuran-1,4′-piperidine]-1′-yl)butyl)-2-oxoindolin-3-ylidene)-N,N-dimethylhydrazinecarbothioamide]
- Caspase 9 activation (caspase 9 in A549 cells): activate
- Caspase 9 activation (caspase 9 in MCF7 cells): activate
- Rank order of caspase 9 activation (caspase 9 in MCF7 cells): FA4 > MLP44 > PS3 > ACThio1
- ROS levels in whole cells (DCFDA-AM) (MCF7 and A549 cells): higher
- EC50 (MCF7 and A549 cell lines): 1530 to 1840 nM
- EC50 (MCF7): 1530 ± 300 nM
- EC50 (A549): 1840 ± 400 nM
- EC50 (MCF10A): 4310 ± 700 nM
- EC50 (BEAS-2B): 4470 ± 1100 nM
- Ki (sigma-2 receptors): 15.8 nM
